This note sets out measurements from publication PMC9866541, “Flavonoid Derivatives as New Potent Inhibitors of Cysteine Proteases: An Important Step toward the Design of New Compounds for the Treatment of Leishmaniasis” (Microorganisms, 2023).

Data set [1] has as its target rCPB3 (Leishmania mexicana, UniProt P36400, D186N/D189S/N185D, form not given). Briefly: Enzyme kinetics and mechanism of inhibition of rCPB3. For mechanism: key: NCPC: non-competitive inhibition with positive cooperativity; SLNC: simple linear non-competitive inhibition. The class given is biochemical. As to conditions: for α: factor of formation of the ESI complex. How it is done: (§1) Studies of cysteine proteases rCPB2.8, rCPB3, and rH84Y inhibition kinetics were performed in different concentrations of Z-FR-AMC in the presence and absence of compounds using 100 mM sodium acetate buffer containing 5 mM EDTA, 100 mM NaCl, 0.01% Triton X-100, and 20% glycerol, at pH 5.5. Aliquots of the enzymes were pre-incubated with 5 mM DTT for 5 min at 37 °C. For every kinetic measurement, the compounds were pre-incubated with each enzyme for 10 min before adding the substrate. All kinetic assays were performed in duplicate. Inhibition constants were determined using different equations, depending on the inhibition mechanism. The assumed KM values of rCPB2.8, rCPB3, and rH84Y for Z-FR-AMC were 3.23 µM, 2.99 µM, and 2.80 µM, respectively. The data of the activity rate and substrate concentration generated rectangular hyperbolic profiles that were linearised using the Lineweaver–Burk double-reciprocal plot. The replot profiles of the slope vs. inhibitor and intercept vs. inhibitor provided Ki and αKi parameters, respectively. If the replots present a parabolic profile, the system involves the participation of a second molecule of the compound, which can bind the enzyme complexed to the first compound (EI), forming IEI, and bind to the ESI complex, forming IESI. Linearisation is required, generating the 1/Kslope vs. inhibitor and 1/Kintercept vs. inhibitor replots, according to Equations (2) and (3). (2) 1/Kslope=1/Ki+[I]/βKi2, (3) 1/Kintercept=1/αKi+[I]/αγKi2, where Ki is the inhibitory constant, [I] is the concentration of inhibitor, α is the factor of formation of the ESI complex (enzyme–substrate–inhibitor complex), β is the factor of formation of the IEI complex (inhibitor–enzyme–inhibitor complex), and γ is the factor of formation of the IESI complex (inhibitor–enzyme–substrate–inhibitor complex) according to the general mechanism (Figure 8). Furthermore, β and γ measure the cooperativity between the binding of the first and second inhibitor molecules to form IEI and IESI, respectively.

The test system of data set [2] is NIH/3T3 fibroblasts. As to the kind of experiment: Cytotoxicity on mammalian cells (sulphorhodamine B). The class given is cell-based. The note with it: for NIH/3T3 Cells GL50: 48 h, concentration that inhibited cell growth by 50%. How it is done:
The cytotoxic effect of the test samples was evaluated on NIH/3T3 fibroblasts, obtained from the Rio de Janeiro Cell Bank (Brazil). Cells were seeded in 96-well plates ([…]). After 24 h of fixation, cells were incubated for 48 h with test samples at 0.25–250 µg/mL, in triplicate. […] Doxorubicin (0.025–25 µg/mL was used as a positive control. Cells were fixed by adding 20% trichloroacetic acid and were subsequently stained with sulphorhodamine B (0.1%) diluted in acetic acid after 48 h of exposure. Absorbance values were read on the PT-READER microplate instrument (Thermoplate®), and growth percentages were calculated according to procedures in the literature. Cytotoxicity activity was expressed as the concentration of drug that inhibited cell growth by 50% (GL50), and growth was determined by nonlinear regression using Origin 6.0 software (OriginLab). The statistical significance was analysed using an unpaired Student’s t-test or a one-way analysis of variance. A p-value < 0.05 was considered statistically relevant. In addition, the SI was calculated using the ratio between cytotoxicity in NHI-3T3 cells (GL50) and activity in the parasite forms (IC50).

In data set [3] the target is rH84Y (Leishmania mexicana, UniProt P36400, D186N/D189S/H209Y/N185D, form not given). Briefly: Enzyme kinetics and mechanism of inhibition of rH84Y. For mechanism: key: NCPC: non-competitive inhibition with positive cooperativity; SLNC: simple linear non-competitive inhibition. The note with it: for α: factor of formation of the ESI complex. The class given is biochemical. The method, then: as §1
Sequence of rH84Y (Leishmania mexicana, UniProt P36400, D186N/D189S/H209Y/N185D, form not given) (P36400 126-343 D186N/D189S/H209Y/N185D): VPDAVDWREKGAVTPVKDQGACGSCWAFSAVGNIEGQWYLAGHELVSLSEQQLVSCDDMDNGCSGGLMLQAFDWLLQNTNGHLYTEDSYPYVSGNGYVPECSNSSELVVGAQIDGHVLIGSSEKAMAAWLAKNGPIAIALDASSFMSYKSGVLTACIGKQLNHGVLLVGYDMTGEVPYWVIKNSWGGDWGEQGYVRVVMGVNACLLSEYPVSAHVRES
Data set [4] concerns the target T1, rCPB2.8 (Leishmania mexicana, UniProt P36400).
T1 construct: recombinant enzymes (r) lacking the C-terminal region
As to the kind of experiment: Determination of IC50 on rCPB2.8 (Z-FR-AMC). The class given is biochemical. The method, then:
Cysteine proteases rCPB2.8, rCPB3, and rH84Y were assayed in 100 mM sodium acetate buffer containing 5 mM EDTA, 100 mM NaCl, 0.01% Triton X-100, and 20% glycerol, at pH 5.5. The enzymes were pre-incubated in the presence of 5 mM DTT for 5 min at 37 °C in a 1 mL final volume with constant stirring. Enzyme activities were monitored using fluorogenic probe Z-FR-AMC (9.25 µM final concentration), and the fluorescence was monitored by spectrofluorometry using fluorometer F2700 (Hitachi, Tokyo, Japan) set to λEx = 360 nm and λEm = 480 nm. The IC50 evaluation was performed using a progressive increase in the concentration of the compounds; the IC50 values were calculated using nonlinear regression, and the data were analysed by Grafit 5.0.13 software using Equation (1). (1) y=100%/1+(x/IC50)^S.

The target in data set [5] is T1, rCPB2.8. As to the kind of experiment: Enzyme kinetics and mechanism of inhibition of rCPB2.8. For mechanism: key: NCPC: non-competitive inhibition with positive cooperativity; SLNC: simple linear non-competitive inhibition. The class given is biochemical. As to conditions: for α: factor of formation of the ESI complex; for β: factor of formation of the IEI complex; for γ: factor of formation of the IESI complex. How it is done:
as §1

Data set [6] addresses T1, rCPB2.8. Briefly: Screening of inhibitory activity on rCPB2.8 (Z-FR-MCA hydrolysis). The class given is biochemical. As to conditions: for inhibition at 1 µM / inhibition at 5 µM: read-out: Inhibition of rCPB2.8 enzymatic activity. How it is done: The screening assays for the inhibitory activity of the compounds in the rCPB2.8, rCPB3, and rH84Y enzymes were performed using 100 mM sodium acetate buffer containing 5 mM EDTA, 100 mM NaCl, 0.01% Triton X-100, and 20% glycerol, at pH 5.5. Enzyme aliquots were pre-incubated with 5 mM DTT for 5 min at 37 °C. After checking the initial rate of the reaction corresponding to the control, the enzymatic rate was measured at two concentrations of compounds, 1 µM and 5 µM. Enzyme activity was monitored by hydrolysis of the substrate Z-FR-MCA by measuring the fluorescence at λEx = 360 nm and λEm = 480 nm on a Hitachi F2700 spectrofluorometer, obtaining the rate values in UAF/min (arbitrary fluorescence units by minute).

The test system of data set [7] is Promastigote forms of L. amazonensis. Briefly: Antipromastigote assay (MTT). The class given is cell-based, Leishmania amazonensis. As to conditions: for IC50: Leishmania amazonensis, 72 h, read-out: Promastigote IC50; for SI (selectivity index): GL50 in NIH/3T3 cells / IC50 in extracellular promastigotes. How it is done:
A standard strain of Leishmania (Leishmania amazonensis) (IFLA/BR/1967/PH8) was used for the evaluation of in vitro antileishmanial activity. The promastigote forms were grown in Schneider’s insect medium (Sigma-Aldrich®, SP/Brazil) supplemented with 20% foetal bovine serum (Sigma-Aldrich®, SP/Brazil), 10,000 U/mL penicillin, and 10 mg/mL streptomycin (Sigma-Aldrich®, SP/Brazil).
Promastigote forms of L. amazonensis in the log growth phase (10^e6 parasites/mL) were added to 96-well plates and incubated in sextuplicate with the test samples (0.25–10.0 µg/mL). The microplates were incubated at 26 °C for 72 h. Cell viability was assessed by adding 5 mg/mL of MTT ([3-(4,5-dimethylthiazol-2-yl)-2,5-diphenyltetrazolium bromide] (Sigma-Aldrich® SP/Brazil). Results were expressed as the half-maximal inhibitory concentration (IC50) calculated by a nonlinear dose–response regression curve using the statistical program GraphPad PRISM 5.0. Pentamidine (Sigma-Aldrich ® SP/Brazil; 0.25–10 µg/mL) was used as a positive control, and pure Schneider culture medium was used as a negative control.

Data set [8] concerns rH84Y. The class given is biochemical, Leishmania mexicana. As to conditions: ratio of IC50 values.
Where [9] appears, read: L. amazonensis promastigotes, 26 °C, MTT, highest concentration tested 10 µg/mL.
The mark [10] stands for this setting: factor of formation of the IEI complex.
The mark [11] stands for this setting: factor of formation of the IESI complex.

Read-outs that look alike come from different tables or passages of the source.

Sequence of rCPB3 (P36400 126-343 D186N/D189S/N185D): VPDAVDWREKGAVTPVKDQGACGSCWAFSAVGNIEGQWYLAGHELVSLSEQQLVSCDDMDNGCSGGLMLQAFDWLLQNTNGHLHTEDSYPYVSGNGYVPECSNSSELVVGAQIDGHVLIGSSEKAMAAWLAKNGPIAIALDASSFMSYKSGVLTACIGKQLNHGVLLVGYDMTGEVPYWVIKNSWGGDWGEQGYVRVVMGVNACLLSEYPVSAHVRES
T1 sequence (P36400 126-343): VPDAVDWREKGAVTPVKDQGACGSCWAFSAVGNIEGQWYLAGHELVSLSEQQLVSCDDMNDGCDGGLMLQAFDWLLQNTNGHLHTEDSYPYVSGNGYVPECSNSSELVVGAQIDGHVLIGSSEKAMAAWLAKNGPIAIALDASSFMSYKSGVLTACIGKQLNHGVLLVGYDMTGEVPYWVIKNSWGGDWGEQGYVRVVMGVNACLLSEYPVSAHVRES

The IC50 is the concentration that gives 50% inhibition. The Ki is a dissociation constant, usually derived from enzyme kinetics or from competition with a known ligand. Low values mean a stronger hold on the target, high ones a looser hold on the target. As usually defined, the inhibition is the relative decrease from the control value, in per cent. In the case of `O=c1c(O)c(-c2ccc3c(c2)OCO3)oc2ccccc12` [Compound f12b, 2-(benzo[d][1, 3]dioxol-5-yl)-3-hydroxy-4H-chromen-4-one], in data set [1], the Mechanism entry was “SLNC”, the αKi is reported as 13.7 ± 1.2 µM and the α came out at 1. In addition, in data set [2], the “NIH/3T3 Cells GL50” value is reported as >885.74 µM. In data set [3], the Mechanism result is listed as “SLNC”, the αKi is given as 6.06 ± 0.24 µM and the α was 1. In data set [4], this compound returned an IC50 of 5.23 ± 0.32 µM. Also, in data set [5], the Mechanism result was “NCPC”, the αKi is 24.9 ± 2.3 µM, the α was 0.634 and the β is listed as 0.029. Besides, the γ in data set [5] stood at 0.013. In data set [5] (Ki), this compound came in with a Ki of 39.2 ± 4.1 µM. The affinity in data set [5] (βKi) corresponds to a Ki of 1.17 ± 0.12 µM. The Ki in data set [5] (γKi) was 0.51 ± 0.09 µM. For the same compound, in data set [6], the inhibition at 1 µM is 69.2% and the inhibition at 5 µM was found to be 77.5%. The IC50 in data set [7] (setting [9]) was > 10 µg/mL.

Take `CN(C)c1ccc(/C=C/C(=O)c2ccc(Cl)cc2)cc1` [Compound 1c, (E)-1-(4-chlorophenyl)-3-(4-(dimethylamino)phenyl)prop-2-en-1-one]: the “NIH/3T3 Cells GL50” value in data set [2] was >874.83 µM. In addition, the half-maximal inhibitory concentration (IC50) in data set [4] was found to be 2.75 ± 0.18 µM; in data set [7] (setting [9]), 1.14 µM. For the same compound, the inhibition at 5 µM in data set [6] came to 91.6%. Moreover, the “SI (selectivity index)” value in data set [7] is on record as >767.39.

As for `CN(C)c1ccc(/C=C/C(=O)c2cc(Cl)ccc2O)cc1` [Compound 3c, (E)-1-(5-chloro-2-hydroxyphenyl)-3-(4-(dimethylamino)phenyl)prop-2-en-1-one], the “Formation of IEI favoured by binding of the first molecule” value in data set [1] is recorded as “sevenfold”; in data set [3], 20 fold; in data set [5] it was 182 fold. The “Formation of IESI favoured by binding of the first molecule” value came out at 20 fold in data set [1], 28 fold in data set [3] and 87 fold in data set [5]. Besides, the Mechanism entry in data set [1], in data set [3] and in data set [5] was “NCPC” each time. Further, the figures for the αKi in data set [1], in data set [3] and in data set [5] were 141 ± 27 µM, 127 ± 20 µM and 147 ± 28 µM, respectively. Also, the α in data set [1] was 9.15; in data set [3], 4.31; in data set [5], 1.47. Also, the β in data set [1] (setting [10]) was 0.14; in data set [3] (setting [10]), 0.049; in data set [5] it was 0.0055. The results for the γ in data set [1] (setting [11]), in data set [3] (setting [11]) and in data set [5] were 0.05, 0.036 and 0.0115, respectively. The “NIH/3T3 Cells GL50” value in data set [2] was >828.44 µM. Moreover, the IC50 was 3.97 ± 0.08 µM in data set [4] and > 10 µg/mL in data set [7] (setting [9]). The Ki in data set [5] (Ki) stood at 100 ± 18 µM; in data set [5] (βKi) it was 0.55 ± 0.1 µM; in data set [5] (γKi), 1.15 ± 0.21 µM.

With `COc1ccc(/C=C/C(=O)c2ccc(Cl)cc2)cc1` [Compound 1a, (E)-1-(4-chlorophenyl)-3-(4-methoxyphenyl)prop-2-en-1-one], the “NIH/3T3 Cells GL50” value in data set [2] turned out to be 294.13 µM. Also, the half-maximal inhibitory concentration (IC50) in data set [4] is 13.7 ± 0.74 µM; in data set [7] it was > 10 µg/mL. The inhibition at 1 µM in data set [6] was 82%.

Regarding `CN(C)c1ccc(/C=C/C(=O)c2cc(F)ccc2O)cc1` [Compound 4c, (E)-3-(4-(dimethylamino)phenyl)-1-(5-fluoro-2-hydroxyphenyl)prop-2-en-1-one], in data set [2], the “NIH/3T3 Cells GL50” value is on record as >876.24 µM. Further, the “Cytotoxicity against mammal cells (in words)” value in data set [2] (NIH/3T3 cells) is on record as “noncytotoxic”. Further, the “Times more potent in inhibiting rH84Y compared to rCPB3” value in data set [8] came to 8.74 times. The concentration for half-maximal inhibition (IC50) in data set [4] was found to be 9.88 ± 0.73 µM; in data set [7] (setting [9]), 0.5 µM. For the same compound, in data set [7], the “SI (selectivity index)” value is >1752.48.

With `CN(C)c1ccc(/C=C/C(=O)c2ccccc2O)cc1` [Compound 2c, (E)-3-(4-(dimethylamino)phenyl)-1-(2-hydroxyphenyl)prop-2-en-1-one], in data set [2], the “NIH/3T3 Cells GL50” value is reported as >935.21 µM. Moreover, the half-inhibitory concentration (IC50) in data set [4] was 11.7 ± 0.38 µM; in data set [7], > 10 µg/mL. Besides, in data set [6] (1 µM compound, activity relative to control), the “rCPB2.8 activity (increased to)” value was 141.71%. For the same compound, the inhibition at 5 µM in data set [6] is 25.6%.
